Columns and labels:
[1] = system: H929 cells; assay: Cell viability assay (H929 10 FBS); format: cell-based; conditions: Homo sapiens, NCI-H929, 24 hours, read-out: H929_10FBS IC50
Method in brief: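 H929 cells, 4000/well, in RPMI 1640 with 10% FBS, sodium pyruvate, HEPES and glucose were exposed to compound 24 h at 37 °C. Viability read as luminescence after 30-60 min at RT with CellTiter-Glo or ATPlite 1 Step.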

[2] = target: MCL-1 (Homo sapiens (Human), UniProt Q07820); assay: Cell free Mcl-1:Bim affinity assay (fluorescence polarization competition); format: binding; conditions: 15 nM MCL-1, 5 nM FITC-Bim, 1 hour at room temperature; class symbols; read-out: BIM_Ki
MCL-1, sequence (Q07820 whole entry): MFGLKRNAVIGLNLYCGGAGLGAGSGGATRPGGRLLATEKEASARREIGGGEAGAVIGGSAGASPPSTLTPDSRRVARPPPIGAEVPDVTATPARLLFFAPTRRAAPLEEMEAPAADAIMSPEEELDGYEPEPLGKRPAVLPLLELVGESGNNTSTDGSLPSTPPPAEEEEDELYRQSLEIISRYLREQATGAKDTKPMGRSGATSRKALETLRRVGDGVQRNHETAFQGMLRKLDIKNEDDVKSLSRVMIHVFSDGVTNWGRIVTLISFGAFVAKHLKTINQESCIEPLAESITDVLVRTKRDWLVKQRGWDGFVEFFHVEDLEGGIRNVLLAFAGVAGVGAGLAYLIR
Method in brief: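 Compounds competed with FITC-labelled Bim peptide (5 nM) for MCL-1 (15 nM) in HEPES/NaCl buffer with 1% DMSO, 1 h at room temperature. Fluorescence polarization (535 nm emission) gave % inhibition versus DMSO and positive controls; IC50 from 10-point curves, converted to Ki by the Nikolovska-Coleska equation.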

Structure (SMILES) | IC50 [1] [nM] | Ki [2] [nM]
CN(C)CCO[C@H]1/C=C/COC(C)(C)C(=O)NS(=O)(=O)c2ccc3c(c2)N(C[C@@H]2CC[C@H]21)C[C@@]1(CCCc2cc(Cl)ccc21)CO3 [Example 65, (3R,6R,7S,8E,22S)-6′-Chloro-7-[2-(dimethylamino)ethoxy]-12,12-dimethyl-15,15-dioxo-spiro[11,20-dioxa-15-thia-1,14-diazatetracyclo[14.7.2.03,6.019,24]pentacosa-8,16,18,24-tetraene-22,1′-tetralin]-13-one] | < 500 | < 1
O=C(O[C@H]1/C=C/COC2(CCC2)C(=O)NS(=O)(=O)c2ccc3c(c2)N(C[C@@H]2CC[C@H]21)C[C@@]1(CCCc2cc(Cl)ccc21)CO3)N1CCC1 [Example 232, [(3R,6R,7S,8E,22S)-6′-Chloro-12,12-(1,3-propylene)-13,15,15-trioxo-spiro[11,20-dioxa-15-thia-1,14-diazatetracyclo[14.7.2.03,6.019,24]pentacosa-8,16(25),17,19(24)-tetraene-22,1′-tetralin]-7-yl] N,N-1,3-propylene carbamate] | < 500 | < 1
CN1C(=O)OC[C@@H]2CC[C@H]2CN2C[C@@]3(CCCc4cc(Cl)ccc43)COc3ccc(cc32)S(=O)(=O)NC(=O)N2CC[C@@H]1C2 [Example 101, (3R,6R,11R,24S)-6′-Chloro-10-methyl-17,17-dioxo-spiro[8,22-dioxa-17-thia-1,10,14,16-tetrazapentacyclo[16.7.2.111,14.03,6.021,26]octacosa-18(27),19,21(26)-triene-24,1′-tetralin]-9,15-dione] | > 1000 | < 1
CO[C@@H]1/C=C/COC(C)(C)C(=O)NS(=O)(=O)c2ccc3c(c2)N(C[C@@H]2CC[C@H]21)C[C@@]1(CCCc2cc(Cl)ccc21)CO3 [Example 30, (3R,6R,7R,8E,22S)-6′-Chloro-7-methoxy-12,12-dimethyl-15,15-dioxo-spiro[[11,20]dioxa-15-thia-1,14-diazatetracyclo[14.7.2.03,6.019,24]pentacosa[8,16(25),17,19(24)]tetraene-22,1′-tetralin]-13-one] | < 1000 | < 1
CCOC(=O)N(C)[C@@H]1/C=C/CN(C)C(C)(C)C(=O)NS(=O)(=O)c2ccc3c(c2)N(C[C@@H]2CC[C@H]21)C[C@@]1(CCCc2cc(Cl)ccc21)CO3 [Example 253, Ethyl N-methyl-N-[(3R,6R,7R,8E,22S)-6′-chloro-11,12,12-trimethyl-13,15,15-trioxo-spiro[20-oxa-15-thia-1,11,14-triazatetracyclo[14.7.2.03,6.019,24]pentacosa-8,16(25),17,19(24)-tetraene-22,1′-tetralin]-7-yl]carbamate] | > 1000 | 1 to 100
CO[C@@H]1/C=C/CN(C)C(C)(C)C(=O)NS(=O)(=O)c2ccc3c(c2)N(C[C@@H]2CC[C@H]21)C[C@@]1(CCCc2cc(Cl)ccc21)CO3 [Example 42, (3R,6R,7R,8E,22S)-6′-Chloro-7-methoxy-11,12,12-trimethyl-15,15-dioxo-spiro[20-oxa-15-thia-1,11,14-triazatetracyclo[14.7.2.03,6.019,24]pentacosa-8,16,18,24-tetraene-22,1′-tetralin]-13-one] | < 500 | 1 to 100
CC1(C)OC/C=C/[C@H](OC(=O)N2CC(F)C2)[C@@H]2CC[C@H]2CN2C[C@@]3(CCCc4cc(Cl)ccc43)COc3ccc(cc32)S(=O)(=O)NC1=O [Example 165, [(3R,6R,7S,8E,22S)-6′-Chloro-12,12-dimethyl-13,15,15-trioxo-spiro[11,20-dioxa-15-thia-1,14-diazatetracyclo[14.7.2.03,6.019,24]pentacosa-8,16,18,24-tetraene-22,1′-tetralin]-7-yl] 3-fluoroazetidine-1-carboxylate] | < 500 | < 1
CC(=O)N(C)[C@H]1/C=C/COC(C)(C)C(=O)NS(=O)(=O)c2ccc3c(c2)N(C[C@@H]2CC[C@H]21)C[C@@]1(CCCc2cc(Cl)ccc21)CO3 [Example 255, N-Methyl-N-[(3R,6R,7S,8E,22S)-6′-chloro-12,12-dimethyl-13,15,15-trioxo-spiro[11,20-dioxa-15-thia-1,14-diazatetracyclo[14.7.2.03,6.019,24]pentacosa-8,16(25),17,19(24)-tetraene-22,1′-tetralin]-7-yl]acetamide] | > 1000 | 1 to 100
O=C1N[C@@H]2CCN(C2)C(=O)NS(=O)(=O)c2ccc3c(c2)N(C[C@@H]2CC[C@H]2CO1)C[C@@]1(CCCc2cc(Cl)ccc21)CO3 [Example 102, (3R,6R,11R,24S)-6′-Chloro-17,17-dioxo-spiro[8,22-dioxa-17-thia-1,10,14,16-tetrazapentacyclo[16.7.2.111,14.03,6.021,26]octacosa-18(27),19,21(26)-triene-24,1′-tetralin]-9,15-dione] | > 1000 | 1 to 100

Continued, values first:

IC50 [1] [nM] | Ki [2] [nM] | Structure (SMILES)
< 500 | < 1 | CCOC1CN(C(=O)O[C@H]2/C=C/COC(C)(C)C(=O)NS(=O)(=O)c3ccc4c(c3)N(C[C@@H]3CC[C@H]32)C[C@@]2(CCCc3cc(Cl)ccc32)CO4)C1 [Example 57, [(3R,6R,7S,8E,22S)-6′-Chloro-12,12-dimethyl-13,15,15-trioxo-spiro[11,20-dioxa-15-thia-1,14-diazatetracyclo[14.7.2.03,6.019,24]pentacosa-8,16,18,24-tetraene-22,1′-tetralin]-7-yl] 3-ethoxyazetidine-1-carboxylate]
< 500 | < 1 | COC1CN(C(=O)O[C@H]2/C=C/CN(C)C3(CCC3)C(=O)NS(=O)(=O)c3ccc4c(c3)N(C[C@@H]3CC[C@H]32)C[C@@]2(CCCc3cc(Cl)ccc32)CO4)C1 [Example 238, [(3R,6R,7S,8E,22S)-6′-Chloro-11-methyl-12,12-(1,3-propylene)-13,15,15-trioxo-spiro[20-oxa-15-thia-1,11,14-triazatetracyclo[14.7.2.03,6.019,24]pentacosa-8,16,18,24-tetraene-22,1′-tetralin]-7-yl] 3-methoxyazetidine-1-carboxylate]
< 500 | < 1 | CO[C@@H]1CCN(C(=O)O[C@H]2/C=C/CN(C)C(C)(C)C(=O)NS(=O)(=O)c3ccc4c(c3)N(C[C@@H]3CC[C@H]32)C[C@@]2(CCCc3cc(Cl)ccc32)CO4)C1 [Example 215, [(3R,6R,7S,8E,22S)-6′-Chloro-11,12,12-trimethyl-13,15,15-trioxo-spiro[20-oxa-15-thia-1,11,14-triazatetracyclo[14.7.2.03,6.019,24]pentacosa-8,16,18,24-tetraene-22,1′-tetralin]-7-yl] (3R)-3-methoxypyrrolidine-1-carboxylate]
> 1000 | 1 to 100 | CO[C@H]1/C=C/CCCCC(=O)NS(=O)(=O)c2ccc3c(c2)N(C[C@@H]2CC[C@H]21)C[C@@]1(CCCc2cc(Cl)ccc21)CO3 [Example 83, (3R,6R,7S,8E,23S)-6′-Chloro-7-methoxy-16,16-dioxo-spiro[21-oxa-16-thia-1,15-diazatetracyclo[15.7.2.03,6.020,25]hexacosa-8,17,19,25-tetraene-23,1′-tetralin]-14-one]

Source: patent publication US11130769B2 (Prelude Therapeutics Incorporated, priority 2018, dated 2021)
